From US9527807B2, “Sulfonamide derivative and use thereof” (Takeda Pharmaceutical Company Limited, priority 2011, dated 2016)

Molecular target: T1, AMPA receptor (human GluR1 flip/stargazin expressed in CHO-K1 cells) (Homo sapiens, UniProt P42261)
T1 construct: expressed in transfected cells; host or cells: CHO-K1
Experiment: AMPA receptor function enhancing activity using calcium influx as index
Type: cell-based
Details: change in fluorescence level in 3 min, 100% = 3 mM glutamic acid + 300 μM cyclothiazide, 0% = 3 mM glutamic acid only
From the text: Human GluR1 flip cDNA was amplified by PCR using forward primer […] (SEQ ID NO: 1) and reverse primer […] (SEQ ID NO: 2) artificially synthesized using human brain-derived cDNA (BD Bio science) as a template. The amplified product was digested with restriction enzymes EcoRI, NotI (TAKARA SHUZO CO. LTD.), and incorporated into the same site of pcDNA3.1(+) (Invitrogen) to construct pcDNA3.1(+)/human GluR1 flip gene. Human stargazin cDNA was amplified by PCR using forward primer […] (SEQ ID NO: 3) and reverse primer. […] (SEQ ID NO: 4) artificially synthesized using human hippocampus cDNA as a template. The amplified product was digested with restriction enzymes XhoI, BamHI (TAKARA SHUZO CO. LTD.), and incorporated into the same site of pcDNA3.1(−) (Invitrogen) to construct pcDNA3.1 Zeo(−)/human stargazin gene.
(2) Construction of GluR1 Flip/Stargazin Expressing Cell
CHO-K1 cells passaged in a culture medium (Ham's F12 medium (Invitrogen) added with 10% inactivated fetal bovine serum (Morgate) and penicillin, streptomycin (Invitrogen)) were detached with 0.05% trypsin, 0.53 mM EDTA (Invitrogen) diluted with D-PBS(−). The detached cells were suspended in a culture medium, and recovered by a centrifugation operation at 1,000 rpm. The recovered cells were suspended again in D-PBS(−), and added to a 0.4 cm electroporation cuvette (BioRad). pcDNA3.1(+)/human GluR1 flip gene (5 μg) and pcDNA3.1 Zeo(−)/human stargazin gene (15 μg) were added, and the mixture was introduced into CHO-K1 cells using Gene Pulser II (BioRad) under the conditions of 950 μFd, […]. The introduced cells were cultured overnight in a culture medium and, the next day, plated in a 96 well plate at 250 cells/well using a selection medium (culture medium added with Zeocin (Invitrogen) to 250 μg/mL). Clones showing drug resistance were selected, and GluR1 flip/stargazin expressing clones were selected by an assay method using calcium influx as an index as shown below.
(3) Measurement Method of AMPA Receptor Function Enhancing Activity of Compound Using Calcium Influx as Index
CHO-K1/GluR1 flip/stargazin expressing cells were plated on a 384 well black transparent bottom plate (FMAT4307723) at 0.5×10^4 cells/well, and cultured in a 37° C., CO2 incubator (SANYO Electric Co., Ltd.) for 2 days. The medium in the cell plate was removed, and a calcium indicator (Calcium 4 Assay Kit, Molecular. Devices) containing 1.25 mM probenecid (Invitrogen) was added at 25 μL/well and the well was left standing in 37° C., CO2 incubator for 1 hr. The cell plate was set in FLITRtetra (Molecular Devices), a mixture (12.5 μL) of 9 mM glutamic acid diluted with assay buffer B (HBSS (Invitrogen), 0.1% BSA, 10 mM HEPES) and a test compound was added, and the amount of change in fluorescence level in 3 min was measured. In the definition here, the amount of change in fluorescence level of well added with glutamic acid at final concentration 3 mM and 300 μM cyclothiazide (TOCRIS) is 100%, the amount of change in fluorescence level of well added only with glutamic acid at final concentration 3 mM is 0%, and the compound activity was calculated according to the following formula. activity (%)=(X−C)/(T−C)×100 T: amount of change in fluorescence level of well added with glutamic acid at final concentration 3 mM and 300 μM cyclothiazide C: amount of change in fluorescence level of well added only with glutamic acid at final concentration 3 mM X: amount of change in fluorescence level of well added with to test compound

T1 sequence (P42261 19-906 isoform P42261-2 limits assumed): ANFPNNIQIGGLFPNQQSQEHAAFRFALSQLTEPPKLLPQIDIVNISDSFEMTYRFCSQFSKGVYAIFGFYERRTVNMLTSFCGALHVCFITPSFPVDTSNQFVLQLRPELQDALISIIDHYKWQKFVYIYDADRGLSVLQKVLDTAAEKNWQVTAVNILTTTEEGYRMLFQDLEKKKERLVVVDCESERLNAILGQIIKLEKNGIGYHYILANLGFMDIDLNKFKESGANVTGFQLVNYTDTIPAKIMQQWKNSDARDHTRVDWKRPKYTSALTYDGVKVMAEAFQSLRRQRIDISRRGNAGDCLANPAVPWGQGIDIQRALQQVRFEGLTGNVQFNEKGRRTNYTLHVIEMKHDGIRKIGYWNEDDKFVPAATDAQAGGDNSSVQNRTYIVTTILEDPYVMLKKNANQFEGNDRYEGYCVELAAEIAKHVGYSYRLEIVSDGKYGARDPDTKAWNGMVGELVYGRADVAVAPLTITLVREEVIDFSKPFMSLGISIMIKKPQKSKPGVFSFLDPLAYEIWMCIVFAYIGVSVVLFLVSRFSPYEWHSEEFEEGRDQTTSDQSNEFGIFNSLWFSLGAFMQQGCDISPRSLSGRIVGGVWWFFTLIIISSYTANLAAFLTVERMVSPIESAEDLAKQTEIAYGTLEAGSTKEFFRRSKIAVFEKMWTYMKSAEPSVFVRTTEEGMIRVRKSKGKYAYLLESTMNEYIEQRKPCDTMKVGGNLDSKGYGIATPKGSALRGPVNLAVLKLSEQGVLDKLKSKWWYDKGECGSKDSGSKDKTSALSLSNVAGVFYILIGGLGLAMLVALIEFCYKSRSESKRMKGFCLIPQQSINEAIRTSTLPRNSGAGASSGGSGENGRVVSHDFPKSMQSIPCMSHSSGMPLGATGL
T1 sequence (Q9Y698 whole entry partner): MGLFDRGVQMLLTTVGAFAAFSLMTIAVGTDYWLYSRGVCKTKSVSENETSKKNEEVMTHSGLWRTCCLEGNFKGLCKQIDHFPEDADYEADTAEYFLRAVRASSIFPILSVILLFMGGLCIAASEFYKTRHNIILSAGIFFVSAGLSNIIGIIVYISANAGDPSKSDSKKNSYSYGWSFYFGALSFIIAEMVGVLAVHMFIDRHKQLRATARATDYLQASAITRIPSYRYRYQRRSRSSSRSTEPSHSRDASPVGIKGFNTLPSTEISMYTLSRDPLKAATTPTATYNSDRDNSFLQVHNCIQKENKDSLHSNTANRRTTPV

Structure (SMILES)	activity (%)
CCS(=O)(=O)N[C@H]1CCC(F)(F)C[C@@H]1COc1ccc(-n2nccc2C)cc1 (relative stereo) [Example 143, trans-N-[4,4-difluoro-2-{[4-(5-methyl-1H-pyrazol-1-yl)phenoxy]methyl}cyclohexyl]ethanesulfonamide]	42
CCS(=O)(=O)N[C@H]1CCOC[C@@H]1COc1ccc(-n2cccn2)cc1 (single isomer, unassigned) [Example 6, trans-N-[3-{[4-(1H-pyrazol-1-yl)phenoxy]methyl}tetrahydro-2H-pyran-4-yl]ethanesulfonamide]	82
CCS(=O)(=O)N[C@H]1CCN(C(C)=O)C[C@@H]1COc1ccc(C(C)C)cc1 (single isomer, unassigned) [Example 94, trans-N-[1-acetyl-3-{[4-(1-methylethyl)phenoxy]methyl}piperidin-4-yl]ethanesulfonamide]	70
CCS(=O)(=O)N[C@H]1COCC[C@@H]1COc1ccc(C(C)C)cc1 (single isomer, unassigned) [Example 110, trans-N-[4-{[4-(1-methylethyl)phenoxy]methyl}tetrahydro-2H-pyran-3-yl]ethanesulfonamide]	88
CCS(=O)(=O)N[C@H]1CCOC[C@@H]1COc1ccc(OC(F)F)cc1 (single isomer, unassigned) [Example 124, trans-N-[3-{[4-(difluoromethoxy)phenoxy]methyl}tetrahydro-2H-pyran-4-yl]ethanesulfonamide]	81
CS(=O)(=O)N[C@@H]1CCOC[C@H]1COc1ccc(-c2ccc(Cl)cn2)cc1F (single isomer, unassigned) [Example 266, N-[(3S,4R)-3-{[4-(5-chloropyridin-2-yl)-2-fluorophenoxy]methyl}tetrahydro-2H-pyran-4-yl]methanesulfonamide or N-[(3R,4S)-3-{[4-(5-chloropyridin-2-yl)-2-fluorophenoxy]methyl}tetrahydro-2H-pyran-4-yl]methanesulfonamide]	92
CCS(=O)(=O)N[C@H]1CCOC[C@@H]1COc1ccc(-c2ccc(F)cn2)c(F)c1 (single isomer, unassigned) [Example 313, N-[(3R,4S)-3-{[3-fluoro-4-(5-fluoropyridin-2-yl)phenoxy]methyl}tetrahydro-2H-pyran-4-yl]ethanesulfonamide or N-[(3S,4R)-3-{[3-fluoro-4-(5-fluoropyridin-2-yl)phenoxy]methyl}tetrahydro-2H-pyran-4-yl]ethanesulfonamide]	99
CS(=O)(=O)N[C@@H]1CCOC[C@H]1COc1ccc(-c2ncc(Cl)cc2F)cc1 (single isomer, unassigned) [Example 382, N-[(3S,4R)-3-{[4-(5-chloro-3-fluoropyridin-2-yl)phenoxy]methyl}tetrahydro-2H-pyran-4-yl]methanesulfonamide or N-[(3R,4S)-3-{[4-(5-chloro-3-fluoropyridin-2-yl)phenoxy]methyl}tetrahydro-2H-pyran-4-yl]methanesulfonamide]	59
CS(=O)(=O)N[C@H]1CCOC[C@@H]1COc1ccc(-c2ccc(F)cn2)c(F)c1 (single isomer, unassigned) [Example 477, N-[(3R,4S)-3-{[3-fluoro-4-(5-fluoropyridin-2-yl)phenoxy]methyl}tetrahydro-2H-pyran-4-yl]methanesulfonamide or N-[(3S,4R)-3-{[3-fluoro-4-(5-fluoropyridin-2-yl)phenoxy]methyl}tetrahydro-2H-pyran-4-yl]methanesulfonamide]	68
CCS(=O)(=O)N[C@H]1CCCC[C@@H]1COc1ccc(C(C)C)cc1 [Example 13, N-[(1S,2S)-2-{[4-(1-methylethyl)phenoxy]methyl}cyclohexyl]ethanesulfonamide]	81
CS(=O)(=O)N[C@H]1COCC[C@@H]1COc1ccc(-c2ccc(Cl)cn2)cc1 [Example 205, N-[(3R,4S)-4-{[4-(5-chloropyridin-2-yl)phenoxy]methyl}tetrahydro-2H-pyran-3-yl]methanesulfonamide]	65
CS(=O)(=O)N[C@H]1COCC[C@@H]1COc1ccc(-n2cc(Cl)cn2)cc1 [Example 206, N-[(3R,4S)-4-{[4-(4-chloro-1H-pyrazol-1-yl)phenoxy]methyl}tetrahydro-2H-pyran-3-yl]methanesulfonamide]	74
CS(=O)(=O)N[C@H]1COCC[C@@H]1COc1ccc(-n2cc(Cl)cn2)cc1F [Example 207, N-[(3R,4S)-4-{[4-(4-chloro-1H-pyrazol-1-yl)-2-fluorophenoxy]methyl}tetrahydro-2H-pyran-3-yl]methanesulfonamide]	74
CCS(=O)(=O)N[C@H]1COCC[C@@H]1COc1ccc(-c2ccc(Cl)cn2)cc1 [Example 209, N-[(3R,4S)-4-{[4-(5-chloropyridin-2-yl)phenoxy]methyl}tetrahydro-2H-pyran-3-yl]ethanesulfonamide]	85
CS(=O)(=O)N[C@H]1CCC(F)(F)C[C@@H]1COc1ccc(-c2ncc(C#N)cc2F)cc1 [Example 215, N-[(1S,2S)-2-{[4-(5-cyano-3-fluoropyridin-2-yl)phenoxy]methyl}-4,4-difluorocyclohexyl]methanesulfonamide]	101
CCS(=O)(=O)N[C@H]1CCC(F)(F)C[C@@H]1COc1ccc(-c2ncc(C#N)cc2F)cc1 [Example 222, N-[(1S,2S)-2-{[4-(5-cyano-3-fluoropyridin-2-yl)phenoxy]methyl}-4,4-difluorocyclohexyl]ethanesulfonamide]	89
Cc1cc(-c2ccc(OC[C@H]3COCC[C@@H]3NS(C)(=O)=O)cc2F)no1 [Example 247, N-[(3R,4S)-3-{[3-fluoro-4-(5-methylisoxazol-3-yl)phenoxy]methyl}tetrahydro-2H-pyran-4-yl]methanesulfonamide]	87
CCS(=O)(=O)N[C@H]1CCOC[C@@H]1COc1ccc(-c2cc(C)on2)c(F)c1 [Example 248, N-[(3R,4S)-3-{[3-fluoro-4-(5-methylisoxazol-3-yl)phenoxy]methyl}tetrahydro-2H-pyran-4-yl]ethanesulfonamide]	87
O=S(=O)(N[C@H]1CCOC[C@@H]1COc1ccc(-c2ncc(Cl)cc2F)cc1)C1CC1 [Example 256, N-[(3R,4S)-3-{[4-(5-chloro-3-fluoropyridin-2-yl)phenoxy]methyl}tetrahydro-2H-pyran-4-yl]cyclopropanesulfonamide]	91
O=S(=O)(N[C@H]1COCC[C@@H]1COc1ccc(-c2ccc(F)cn2)cc1F)C1CC1 [Example 264, N-[(3R,4S)-4-{[2-fluoro-4-(5-fluoropyridin-2-yl)phenoxy]methyl}tetrahydro-2H-pyran-3-yl]cyclopropanesulfonamide]	104
CS(=O)(=O)N[C@H]1CCOC[C@@H]1COc1ccc(-n2cc(C(F)(F)F)cn2)cc1 [Example 265, N-[(3R,4S)-3-({4-[4-(trifluoromethyl)-1H-pyrazol-1-yl]phenoxy}methyl)tetrahydro-2H-pyran-4-yl]methanesulfonamide]	78
